Where “and” joins values, the source holds several entries; their conditions need not be identical. Equal entries are not always repeated.
Key:
[1] = test system: Ovalbumin-induced bronchoconstriction; settings: assay protocol reference data; cited from earlier work
TNF-α = TNF-α in bronchoalveolar lavage fluid after ovalbumin challenge (ELISA); assay type: in vivo, guinea pig; settings: BALF, WG-1-101 500 mg/kg PO, Phenidone 30 mg/kg IV
Method: (§1) The test substance at 500 mg/kg was administered orally twice daily for 3 consecutive days and an additional final dose was added on testing day, then, one hour after final dose, the animals were injected intravenously (1 ml/kg) with a “cocktail”: Indomethacin (10 mg/kg), Mepyramine (2 mg/kg), and Propranolol (100 μg/kg), followed by challenge with ovalbumin 5 minutes later. […] Bronchoalveolar lavage fluid was retrieved after instilling 5 ml of phosphate buffered saline for 2 times. TNF-α, IL-1β and IL-8 in bronchoalveolar lavage fluid (BALF) supernatants were measured with ELISA after ovalbumin challenge. One-way ANOVA followed by Dunnett's Test was applied for comparison between the vehicle control and test compound-treated groups. P<0.05 is considered significant.
(§2) Bronchoalveolar lavage fluid (BALF) samples in the WG-I-101-treated group were prepared for measurements of TNF-α, IL-1β and IL-8 after ovalbumin challenge. One-way ANOVA followed by Dunnett's test was applied for comparison between the vehicle control and test compound-treated groups. P<0.05 is considered significant.
(§3) Bronchoalveolar lavage fluid (BALF) samples in the WG-I-101 treated group were prepared for measurements of TNF-α, IL-1β and IL-8 after Ovalbumin challenge. TNF-α, IL-1β and IL-8 levels of each sample were assessed using TNF-α, IL-1β and IL-8 ELISA kits, respectively. […]

IL-1β = IL-1β in bronchoalveolar lavage fluid after ovalbumin challenge (ELISA); assay type: in vivo, guinea pig; settings: BALF, WG-1-101 500 mg/kg PO, Phenidone 30 mg/kg IV
Method: as §1, §2, §3

[2] = test system: Ovalbumin-induced bronchoconstriction; assay: Pulmonary, Antigen/Lipoxygenase Metabolites, in Guinea Pigs (intratracheal pressure); assay type: in vivo, guinea pig
Method: Assays were performed at MDS Pharma in Taiwan and reference standards used as an integral part of each assay to ensure the validity of the results obtained. The biological assay employed was the Pulmonary, Antigen/Lipoxygenase Metabolites assay and the diethyl ether extract of Siphonochilus aethiopicus was evaluated for possible activity in this in vivo assay.
WG-I-101 was suspended in 0.5% CMC/0.1% Tween 80. The test substance at a dose of 500 mg/kg was given orally twice daily for 3 consecutive days and an additional final dose was added at one hour before challenge of Ovalbuminon testing day. Dosing volume of 10 ml/kg was used. The formulation is summarized as follows: […]
Groups of 5 Dunkin-Hartley derived male guinea pigs weighing 400±50 g (final day) were employed. The animals were anesthetized with pentobarbital sodium (50 mg/kg IP, with an additional 15 mg/kg IP if needed). An aluminum plate kept at 37° C. through water flow from a bath was placed beneath the test animals to maintain body temperature. The trachea was cannulated and a rodent ventilator (Harvard, USA) was used for artificial ventilation (10 ml/kg, 50 breaths/minute). Through a side-arm of the cannula, intratracheal pressure (ITP) was measured using a Pneumatic pulse transducer (Narco Biosystem, USA). A carotid artery was cannulated (PE50, Clay Adams, USA) for measurements of blood pressure using a Stathem P23×L transducer (Viggo-Spectramed, USA) and heart rate was obtained from lead II ECG. Guinea pigs were sensitized with IP injections of ovalbumin (0.5 μg/0.5 ml/animal) and Al (OH)3 (1 mg/0.5 ml/animal) on days 1 and 8. The animals were then challenged with 15 μg/kg of Ovalbumin (IV) between days 19 and 23 and bronchopulmonary constriction was recorded as an increase in ITP.
as §1
Anesthetized and artificially ventilated guinea pigs previously sensitized were pretreated with Mepyramine 2 mg/kg, Indomethacin 10 mg/kg and Propranol 0.1 mg/kg for 5 minutes; arterial blood pressure (BP, mm Hg), heart rate (HR, beats/min.) and tracheal pressure (TP, cm H2O) were recorded after oral dosing for 3 days. At the end of chronic dosing, antigen (Ovalbumin 15 μg/kg IV)-induced increase in tracheal pressure (ITP) above an initial baseline of 6 cm H2O was then recorded as an indication of bronchoconstriction. Percent (%) inhibition is calculated according to the formula of [Increase in Tracheal Pressure (vehicle-treated)]−[Increase in Tracheal Pressure (test substance-treated)/[Increase in Tracheal Pressure (vehicle-treated)]×100%. • 1. ΔITP: Changes in ITP over corresponding baseline values; (−) Oval: Response to vehicle or test substance alone and before Ovalbumin challenge; (+) Oval: Changes in response to Ovalbumin challenge. • 2. % Control: ITP response to test substance, vehicle expressed in terms of percentage of the ITP response to Ovalbumin (15 μg/kg IV) in the vehicle-treated control (100%). • 3. […]
The trachea is cannulated and the guinea pig ventilated with a Harvard rodent respirator in a closed system. Tracheal pressure is recorded through a side-arm of the cannula connected to a P23ID Statham transducer. […]

IL-8 = IL-8 in bronchoalveolar lavage fluid after ovalbumin challenge (ELISA); assay type: in vivo, guinea pig; settings: BALF, WG-1-101 500 mg/kg PO, Phenidone 30 mg/kg IV
Method: as §1, §2, §3

CC(C)(C)NCC(O)c1ccc(O)c(CO)c1 (stereo not drawn) [Salbutamol]
MED mg/kg i.v. [1]: 0.1 mg/kg

O=C1CCN(c2ccccc2)N1 [Phenidone]
TNF-α (pg/ml), X (TNF-α; group mean): 7.62 pg/mL | TNF-α (TNF-α; individual animals N 1-5): 12.03 pg/mL and 7.0 pg/mL and 3.79 pg/mL and 8.96 pg/mL and 6.33 pg/mL | IL-1β (pg/ml), X (IL-1β; group mean): 1.21 pg/mL | IL-1β (IL-1β; individual animals N 1-5): 3.10 pg/mL and 0.24 pg/mL and 0.46 pg/mL and 2.25 pg/mL and 0.00 pg/mL | % Control ([2]; ITP response to test substance as % of Ovalbumin response in vehicle control): 0% | ΔITP (cm H2O) (+) Oval, X ± SEM ([2]; group mean of 5, response to Ovalbumin 15 μg/kg IV, WG-1-101 500 mg/kg PO bidx3 & qdx1, Phenidone 30 mg/kg IV qdx1): 1.8 ± 0.8 cm H2O | ΔITP (cm H2O) (−) Oval, X ± SEM ([2]; group mean, before Ovalbumin challenge, WG-1-101 500 mg/kg PO bidx3 & qdx1, Phenidone 30 mg/kg IV qdx1): 0 cm H2O | ΔITP (cm H2O) (−) Oval ([2]; individual animals N 1-5, before Ovalbumin challenge, WG-1-101 500 mg/kg PO bidx3 & qdx1, Phenidone 30 mg/kg IV qdx1): 0 cm H2O | ΔITP (cm H2O) (+) Oval ([2]; individual animals N 1-5, response to Ovalbumin 15 μg/kg IV, WG-1-101 500 mg/kg PO bidx3 & qdx1, Phenidone 30 mg/kg IV qdx1): 4.8 cm H2O and 1.8 cm H2O and 1.2 cm H2O and 0.6 cm H2O (2×) | % Inhibition of Ovalbumin-induced bronchoconstriction ([2]; relative to vehicle-treated control, WG-1-101 500 mg/kg PO bidx3 & qdx1, Phenidone 30 mg/kg IV qdx1): (89) % | MED mg/kg i.v. [1]: 30 mg/kg | IL-8 Cont(pg/ml), X (IL-8; group mean, * P<0.05 vs vehicle): 0.97* pg/ml | IL-8 Cont(pg/ml) (IL-8; individual animals N 1-5): 3.63 pg/ml and 1.22 pg/ml and 0.00 pg/ml (3×)

CC(Cc1ccc(O)c(O)c1)C(C)Cc1ccc(O)c(O)c1 (stereo not drawn) [NDGA, nordihydroguaretic acid]
MED mg/kg i.v. [1]: 10 mg/kg

CCCc1c(OCCCCc2nnn[nH]2)ccc(C(C)=O)c1O [LY-171883, 1[2-hyroxy-3-propyl-4-[4-(1H-tetrazol-5-yl)butoxy]phenyl]ethanone]
MED mg/kg i.v. [1]: 30 mg/kg

CN1[C@@H]2CC[C@H]1C[C@@H](OC(=O)C(CO)c1ccccc1)C2 (stereo partly drawn) [Atropine]
MED mg/kg i.v. [1]: >10 mg/kg

O=C(O)c1cc(=O)c2c(OCC(O)COc3cccc4oc(C(=O)O)cc(=O)c34)cccc2o1 [Cromolyn Sodium]
MED mg/kg i.v. [1]: >100 mg/kg

— patent US8158165B2, “Preventative treatment and remission of allergic diseases” (CSIR, priority 2006, dated 2012)
